Measurements reported in article PMC6572064, “Discovery of 2-(1-(3-(4-Chloroxyphenyl)-3-oxo- propyl)pyrrolidine-3-yl)-1H-benzo[d]imidazole-4-carboxamide: A Potent Poly(ADP-ribose) Polymerase (PARP) Inhibitor for Treatment of Cancer” (Molecules, 2019).
Where two headings read alike, the source gives them in different places.

How the values were obtained:
PARP-2 = molecular target: T1, PARP-2 (Homo sapiens, UniProt Q9UGN5); assay: PARP-2 inhibition assay (PARP-2 Chemiluminescent Assay Kit, BPS Bioscience); assay type: biochemical; settings: for inhibition at 0.01 µM: 10 nM compound
T1 construct: purchased BPS Bioscience 80552
T1 sequence (Q9UGN5 whole entry): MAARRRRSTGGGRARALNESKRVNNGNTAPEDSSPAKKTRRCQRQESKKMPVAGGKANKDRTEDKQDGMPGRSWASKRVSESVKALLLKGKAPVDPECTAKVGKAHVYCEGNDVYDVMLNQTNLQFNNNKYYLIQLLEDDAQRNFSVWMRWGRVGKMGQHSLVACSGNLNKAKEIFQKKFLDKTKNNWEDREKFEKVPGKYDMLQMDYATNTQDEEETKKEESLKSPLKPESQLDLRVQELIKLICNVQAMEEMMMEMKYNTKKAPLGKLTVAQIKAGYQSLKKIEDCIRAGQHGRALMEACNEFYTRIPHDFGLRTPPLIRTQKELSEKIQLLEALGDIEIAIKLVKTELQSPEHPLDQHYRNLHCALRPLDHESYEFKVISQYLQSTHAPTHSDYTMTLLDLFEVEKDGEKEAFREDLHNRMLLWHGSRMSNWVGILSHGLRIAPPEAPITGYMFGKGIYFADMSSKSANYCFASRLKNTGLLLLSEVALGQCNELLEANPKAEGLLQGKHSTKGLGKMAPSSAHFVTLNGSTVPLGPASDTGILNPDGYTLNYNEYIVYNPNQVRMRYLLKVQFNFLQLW
Method: (§1) The PARP-1 and PARP-2 inhibition assays were performed in outsourcing, by a CRO company, Shanghai Medicilon Inc. (Shanghai, China). […] Briefly, PARP-1 or PARP-2 biotinylated substrate was incubated with compounds or solvent control at varying concentrations and an assay buffer containing the PARP-1 or PARP-2 enzyme.

[1] = system: CAPAN-1 (a BRCA-2-mutated pancreatic cancer cell line); assay: Cell proliferation assay, three-day, CellTiter-Glo, CAPAN-1; assay type: cell-based; settings: for IC50 / inhibition at 0.00508 µM / inhibition at 0.0152 µM / inhibition at 0.0457 µM / inhibition at […] / inhibition at 0.41 µM / inhibition at 1.23 µM / inhibition at 3.7 µM / inhibition at 11.11 µM / inhibition at 33.33 µM / inhibition at 100 µM: Homo sapiens; for inhibition at 0.00508 µM: CAPAN-1, Conc. 0.00508 uM; for inhibition at 0.0152 µM: CAPAN-1, Conc. 0.0152 uM; for inhibition at 0.0457 µM: CAPAN-1, Conc. 0.0457 uM; for inhibition at […]: CAPAN-1, Conc. 0.14 uM; for inhibition at 0.41 µM: CAPAN-1, Conc. 0.41 uM; for inhibition at 1.23 µM: CAPAN-1, Conc. 1.23 uM; for inhibition at 3.7 µM: CAPAN-1, Conc. 3.70 uM; for inhibition at 11.11 µM: CAPAN-1, Conc. 11.11 uM; for inhibition at 33.33 µM: CAPAN-1, Conc. 33.33 uM; for inhibition at 100 µM: CAPAN-1, Conc. 100.00 uM
Summary of the method: (§2)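 Cells seeded overnight in 384-well plates, then exposed to compounds (DMSO stock diluted in medium) for 72 h at 37 °C, 5% CO2. Viability read as CellTiter-Glo luminescence after 60 min at room temperature.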

[2] = system: MDA-MB-436 (a BRCA-1-mutated breast cancer cell line); assay: Cell proliferation assay, three-day, CellTiter-Glo, MDA-MB-436; assay type: cell-based; settings: for inhibition at 0.00508 µM / inhibition at 0.0152 µM / inhibition at 0.0457 µM / inhibition at 0.41 µM / inhibition at 1.23 µM / inhibition at 3.7 µM / inhibition at 11.11 µM / inhibition at 33.33 µM / inhibition at 100 µM / IC50: Homo sapiens; for inhibition at 0.00508 µM: MDA-MB-436, MDA-MB-436, Conc. 0.00508 uM; for inhibition at 0.0152 µM: MDA-MB-436, MDA-MB-436, Conc. 0.0152 uM; for inhibition at 0.0457 µM: MDA-MB-436, MDA-MB-436, Conc. 0.0457 uM; for inhibition at 0.41 µM: MDA-MB-436, MDA-MB-436, Conc. 0.41 uM; for inhibition at 1.23 µM: MDA-MB-436, MDA-MB-436, Conc. 1.23 uM; for inhibition at 3.7 µM: MDA-MB-436, MDA-MB-436, Conc. 3.70 uM; for inhibition at 11.11 µM: MDA-MB-436, MDA-MB-436, Conc. 11.11 uM; for inhibition at 33.33 µM: MDA-MB-436, MDA-MB-436, Conc. 33.33 uM; for inhibition at 100 µM: MDA-MB-436, MDA-MB-436, Conc. 100.00 uM
Summary of the method: as §2

PARP-1 = molecular target: T2, PARP-1 (Homo sapiens, UniProt P09874); assay: PARP-1 inhibition assay (PARP-1 Chemiluminescent Assay Kit, BPS Bioscience); assay type: biochemical; settings: for inhibition at 0.01 µM: 10 nM compound
T2 construct: purchased BPS Bioscience 80569
T2 sequence (P09874 whole entry): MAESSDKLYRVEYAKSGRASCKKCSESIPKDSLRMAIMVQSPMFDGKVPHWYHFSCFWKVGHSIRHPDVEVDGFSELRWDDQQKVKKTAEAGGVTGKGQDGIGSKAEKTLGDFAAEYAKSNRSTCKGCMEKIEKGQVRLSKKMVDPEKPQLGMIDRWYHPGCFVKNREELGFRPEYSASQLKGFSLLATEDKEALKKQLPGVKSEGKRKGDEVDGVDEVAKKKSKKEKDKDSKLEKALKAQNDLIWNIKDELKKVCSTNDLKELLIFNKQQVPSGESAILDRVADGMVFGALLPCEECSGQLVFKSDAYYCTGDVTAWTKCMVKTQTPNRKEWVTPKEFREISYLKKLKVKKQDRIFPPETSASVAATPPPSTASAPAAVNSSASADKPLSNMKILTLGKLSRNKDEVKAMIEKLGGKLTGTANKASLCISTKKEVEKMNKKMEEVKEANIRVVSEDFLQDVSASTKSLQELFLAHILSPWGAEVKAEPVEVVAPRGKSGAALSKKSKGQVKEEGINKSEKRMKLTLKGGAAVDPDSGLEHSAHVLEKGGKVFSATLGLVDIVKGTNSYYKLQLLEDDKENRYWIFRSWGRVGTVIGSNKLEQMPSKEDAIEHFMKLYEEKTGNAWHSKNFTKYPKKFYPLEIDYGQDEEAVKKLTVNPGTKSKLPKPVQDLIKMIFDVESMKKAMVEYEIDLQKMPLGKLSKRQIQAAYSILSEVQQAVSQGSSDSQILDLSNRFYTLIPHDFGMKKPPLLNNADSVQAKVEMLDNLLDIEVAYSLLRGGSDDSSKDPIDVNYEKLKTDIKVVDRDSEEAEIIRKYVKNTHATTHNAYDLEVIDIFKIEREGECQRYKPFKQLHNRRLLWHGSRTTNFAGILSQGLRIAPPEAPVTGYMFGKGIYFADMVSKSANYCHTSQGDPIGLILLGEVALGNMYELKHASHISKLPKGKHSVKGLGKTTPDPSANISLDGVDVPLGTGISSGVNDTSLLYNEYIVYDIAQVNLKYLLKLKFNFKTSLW
Method: as §1

- inhibition at 0.01 µM (PARP-2; supplement sheet, read-out: 10 nM inhibition% PAPR-2): 76.8%
- inhibition at 0.01 µM (PARP-2; read-out: PARP-2 Inhibition % (10 nM)): 76.7%
- IC50 (PARP-2; read-out: PARP-2 IC50): 0.0032 µM
- IC50 (PARP-2; supplement sheet, read-out: IC50 PAPR-2): 0.00315 µM
- IC50 ([1]; CAPAN-1, 72 h, CellTiter-Glo, read-out: CAPAN-1 IC50): 15.5 µM
- IC50 ([1]; CAPAN-1, 72 h, supplement Summary sheet, read-out: IC50): 15.5 µM
- IC50 ([1]; CAPAN-1, curve-fit output, concentration axis Log (uM), read-out: IC50): 15.5 µM
- IC50 ([2]; MDA-MB-436, 72 h, CellTiter-Glo, read-out: MDA-MB-436 IC50): 19.8 µM
- IC50 ([2]; MDA-MB-436, 72 h, supplement Summary sheet, read-out: IC50): 19.8 µM
- IC50 ([2]; MDA-MB-436, curve-fit parameter list, concentrations in uM, read-out: IC50): 19.8 µM
- inhibition at 0.01 µM (PARP-1; supplement sheet, read-out: 10 nM inhibition% PAPR-1): 68%
- inhibition at 0.01 µM (PARP-1; read-out: PARP-1 Inhibition % (10 nM)): 68%
- IC50 (PARP-1; read-out: PARP-1 IC50): 0.0036 µM
- IC50 (PARP-1; supplement sheet, read-out: IC50 PAPR-1): 0.00364 µM
SMILES: NC(=O)c1cccc2[nH]c(C3CCN(CCC(=O)c4ccccc4)C3)nc12 (centres unmarked) [Compound 5cp, 2-(1-(3-Oxo-3-phenylpropyl)pyrrolidin-3-yl)-1H-benzo[d]imidazole-4-carboxamide]
- Inh % 1 ([1]; CAPAN-1, Conc. printed as #REF!, replicate 1): 18.8%
- Inh % 2 ([1]; CAPAN-1, Conc. printed as #REF!, replicate 2): 21.3%
- LogIC50 ([1]; CAPAN-1, curve-fit output, concentration axis Log (uM)): 1.19
- inhibition at 0.00508 µM ([1]; replicate 1, read-out: Inh % 1): -4.4%
- inhibition at 0.00508 µM ([1]; replicate 2, read-out: Inh % 2): -9.4%
- inhibition at 0.0152 µM ([1]; replicate 1, read-out: Inh % 1): 3.3%
- inhibition at 0.0152 µM ([1]; replicate 2, read-out: Inh % 2): -2.6%
- inhibition at 0.0457 µM ([1]; replicate 1, read-out: Inh % 1): 0.846%
- inhibition at 0.0457 µM ([1]; replicate 2, read-out: Inh % 2): -4.3%
- inhibition at […] ([1]; replicate 1, read-out: Inh % 1): 4.9%
- inhibition at […] ([1]; replicate 2, read-out: Inh % 2): -2.2%
- inhibition at 0.41 µM ([1]; replicate 1, read-out: Inh % 1): -7.8%
- inhibition at 0.41 µM ([1]; replicate 2, read-out: Inh % 2): -11.6%
- inhibition at 1.23 µM ([1]; replicate 1, read-out: Inh % 1): 17.2%
- inhibition at 1.23 µM ([1]; replicate 2, read-out: Inh % 2): -4.7%
- inhibition at 3.7 µM ([1]; replicate 1, read-out: Inh % 1): -2.4%
- inhibition at 3.7 µM ([1]; replicate 2, read-out: Inh % 2): -0.7%
- inhibition at 11.11 µM ([1]; replicate 1, read-out: Inh % 1): 18.7%
- inhibition at 11.11 µM ([1]; replicate 2, read-out: Inh % 2): 8.5%
- inhibition at 33.33 µM ([1]; replicate 1, read-out: Inh % 1): 98.2%
- inhibition at 33.33 µM ([1]; replicate 2, read-out: Inh % 2): 97.2%
- inhibition at 100 µM ([1]; replicate 1, read-out: Inh % 1): 99.7%
- inhibition at 100 µM ([1]; replicate 2, read-out: Inh % 2): 99.1%
- inhibition at 0.00508 µM ([2]; replicate 1, read-out: Inh % 1): -1.4%
- inhibition at 0.00508 µM ([2]; replicate 2, read-out: Inh % 2): -0.3%
- inhibition at 0.0152 µM ([2]; replicate 1, read-out: Inh % 1): -1.8%
- inhibition at 0.0152 µM ([2]; replicate 2, read-out: Inh % 2): -8.4%
- inhibition at 0.0457 µM ([2]; replicate 1, read-out: Inh % 1): -13.1%
- inhibition at 0.0457 µM ([2]; replicate 2, read-out: Inh % 2): -7%
- inhibition at 0.41 µM ([2]; replicate 1, read-out: Inh % 1): -6.8%
- inhibition at 0.41 µM ([2]; replicate 2, read-out: Inh % 2): -9.9%
- inhibition at 1.23 µM ([2]; replicate 1, read-out: Inh % 1): -10%
- inhibition at 1.23 µM ([2]; replicate 2, read-out: Inh % 2): -7.6%
- inhibition at 3.7 µM ([2]; replicate 1, read-out: Inh % 1): -1.8%
- inhibition at 3.7 µM ([2]; replicate 2, read-out: Inh % 2): -0.0749%
- inhibition at 11.11 µM ([2]; replicate 1, read-out: Inh % 1): 7.8%
- inhibition at 11.11 µM ([2]; replicate 2, read-out: Inh % 2): 4.7%
- inhibition at 33.33 µM ([2]; replicate 1, read-out: Inh % 1): 91.6%
- inhibition at 33.33 µM ([2]; replicate 2, read-out: Inh % 2): 79.7%
- inhibition at 100 µM ([2]; replicate 1, read-out: Inh % 1): 99.8%
- inhibition at 100 µM ([2]; replicate 2, read-out: Inh % 2): 99.4%
- LogIC50 ([2]; MDA-MB-436, curve-fit parameter list, Log (uM)): 1.296
